# Test results: patent publication US20260193271A1, “PAN-KRAS INHIBITOR COMPOUND” (ADLAI NORTYE BIOPHARMA CO., LTD., priority 2022, published 2026)
# What was measured:
# [1] = system: AsPC-1 (G12D); assay: In vitro cell proliferation inhibition test (CellTiter-Glo), AsPC-1; assay type: cell-based; details: KRAS (p.G12D), 72 h co-incubation
# Summary of the method: (§1)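 IC50 was derived by four-parameter fitting of normalized CellTiter-Glo signals. These were measured after 72 h co-incubation with compound at 10 concentrations, 3-fold serial, final maximum 10 μM. Plating was 1000-5000 cells/well, adjusted to growth rate, with overnight attachment at 37 °C, 5% CO2.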
# [2] = system: SW480 (G12V); assay: In vitro cell proliferation inhibition test (CellTiter-Glo), SW480; assay type: cell-based; details: SW480 colon cell line, KRAS (p.G12V), 72 h co-incubation
# Summary of the method: as §1
# [3] = Homo sapiens, ASPC1, AsPC-1 pancreas cell line
Compound,IC50 ([1]; AsPC-1 pancreas cell line) [nM],IC50 [2] [nM],"IC50 [1, 3] [nM]",IC50 ([2]; Homo sapiens) [nM]
"(1r,2R,3S)-N-((6^3S,4S,Z)-1^1-ethyl-1^2-(2-((S)-1-methoxyethyl)-5-(1-(1-methylazetidin-3-yl)-1H-pyrazol-4-yl)pyridin-3-yl)-10,10-dimethyl-5,7-dioxo-6^1,6^2,6^3,6^4,6^5,6^6-hexahydro-1^1H-8-oxa-2(4,2)-thiazola-1(5,3)-indola-6(1,3)-pyridazinacycloundecaphane-4-yl)-2,3-dimethylcyclopropane-1-carboxamide [Compound 17′]",697,85,–,–
"(1S,2S)-N-((6^3S,4S,Z)-1^1-ethyl-1^2-(6′-((S)-1-methoxyethyl)-4-(morpholinomethyl)-[2,3′-bipyridin]-5′-yl)-10,10-dimethyl-5,7-dioxo-6^1,6^2,6^3,6^4,6^5,6^6-hexahydro-1^1H-8-oxa-2(4,2)-thiazola-1(5,3)-indola-6(1,3)-pyridazinacycloundecaphane-4-yl)-2-methylcyclopropane-1-carboxamide [Compound 11′]",242,346,–,–
"CCn1c(-c2cc(-c3cc(C4CN(C)C4)on3)cnc2[C@H](C)OC)c2c3cc(ccc31)-c1csc(n1)C[C@H](NC(=O)[C@H]1C[C@@H]1C)C(=O)N1CCC[C@H](N1)C(=O)OCC(C)(C)C2 (atropisomer, axis not shown) [Compound 31, (1S,2S)-N-((6^3S,4S,Z)-1^1-ethyl-1^2-(2-((S)-1-methoxyethyl)-5-(5-(1-methylazetidin-3-yl)isoxazol-3-yl)pyridin-3-yl)-10,10-dimethyl-5,7-dioxo-6^1,6^2,6^3,6^4,6^5,6^6-hexahydro-1^1H-8-oxa-2(4,2)-thiazola-1(5,3)-indola-6(1,3)-pyridazinacycloundecaphane-4-yl)-2-methylcyclopropane-1-carboxamide]",–,–,1.6,2

# The remaining lines, values ahead:
IC50 ([1]; AsPC-1 pancreas cell line) [nM],IC50 [2] [nM],"IC50 [1, 3] [nM]",IC50 ([2]; Homo sapiens) [nM],Compound
–,–,19,20,"CCn1c(-c2cc(-c3cnc(CN4CCN5CCOC[C@@H]5C4)nc3)cnc2[C@H](C)OC)c2c3cc(ccc31)-c1csc(n1)C[C@H](NC(=O)[C@H]1C[C@@H]1C)C(=O)N1CCC[C@H](N1)C(=O)OCC(C)(C)C2 (atropisomer, axis not shown) [Compound 61, (1S,2S)-N-((6^3S,4S,Z)-1^1-ethyl-1^2-(5-(2-(((S)-hexahydropyrazino[2,1-c][1,4]oxazin-8(1H)-yl)methyl)pyrimidin-5-yl)-2-((S)-1-methoxyethyl)pyridin-3-yl)-10,10-dimethyl-5,7-dioxo-6^1,6^2,6^3,6^4,6^5,6^6-hexahydro-1^1H-8-oxa-2(4,2)-thiazola-1(5,3)-indola-6(1,3)-pyridazinacycloundecaphane-4-yl)-2-methylcyclopropane-1-carboxamide]"
33,16,–,–,"(1r,2R,3S)-N-((6^3S,4S,Z)-1^1-ethyl-1^2-(2-((S)-1-methoxyethyl)-5-(1-(2-(4-methylpiperazin-1-yl)ethyl)-1H-pyrazol-4-yl)pyridin-3-yl)-10,10-dimethyl-5,7-dioxo-6^1,6^2,6^3,6^4,6^5,6^6-hexahydro-1^1H-8-oxa-2(4,2)-thiazola-1(5,3)-indola-6(1,3)-pyridazinacycloundecaphane-4-yl)-2,3-dimethylcyclopropane-1-carboxamide [Compound 19′]"
–,–,0.16,0.17,"CCn1c(-c2cc(-c3cc(C4(C)CN(C)C4)on3)cnc2[C@H](C)OC)c2c3cc(ccc31)-c1csc(n1)C[C@H](NC(=O)[C@H]1[C@H](C)[C@@H]1C)C(=O)N1CCC[C@H](N1)C(=O)OCC(C)(C)C2 (atropisomer, axis not shown) [Compound 34, (1r,2R,3S)-N-((6^3S,4S,Z)-1^2-(5-(5-(1,3-dimethylazetidin-3-yl)isoxazol-3-yl)-2-((S)-1-methoxyethyl)pyridin-3-yl)-1^1-ethyl-10,10-dimethyl-5,7-dioxo-6^1,6^2,6^3,6^4,6^5,6^6-hexahydro-1^1H-8-oxa-2(4,2)-thiazola-1(5,3)-indola-6(1,3)-pyridazinacycloundecaphane-4-yl)-2,3-dimethylcyclopropane-1-carboxamide]"
